Target: Aβ42 (Homo sapiens, UniProt P05067)
Assay: Th-T (thioflavin-T) assay of Aβ42 aggregation
Type: biochemical
Conditions: for Th-T assay plate reading, mean of three wells (Supplementary Fig. 47): source data, Ab alone and No Ab as controls

Chain of Aβ42 (P05067 672-713): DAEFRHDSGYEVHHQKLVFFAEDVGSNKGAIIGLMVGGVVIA

Th-T fluorescence, mean of three wells (Aβ42 aggregation time course, reading M117): 2.674
Th-T fluorescence, mean of three wells (Aβ42 aggregation time course, reading M118): 2.686
Th-T fluorescence, mean of three wells (Aβ42 aggregation time course, reading M119): 2.671
Th-T fluorescence, mean of three wells (Aβ42 aggregation time course, reading M120): 2.6965
Th-T fluorescence, mean of three wells (Aβ42 aggregation time course, reading M121): 2.686
Th-T fluorescence, mean of three wells (Aβ42 aggregation time course, reading M122): 2.656
Th-T fluorescence, mean of three wells (Aβ42 aggregation time course, reading M123): 2.683
Th-T fluorescence, mean of three wells (Aβ42 aggregation time course, reading M124): 2.652
Th-T fluorescence, mean of three wells (Aβ42 aggregation time course, reading M125): 2.669
Th-T fluorescence, mean of three wells (Aβ42 aggregation time course, reading M126): 2.668
Th-T fluorescence, mean of three wells (Aβ42 aggregation time course, reading M127): 2.67
Th-T fluorescence, mean of three wells (Aβ42 aggregation time course, reading M128): 2.643
Th-T fluorescence, mean of three wells (Aβ42 aggregation time course, reading M129): 2.642
Th-T fluorescence, mean of three wells (Aβ42 aggregation time course, reading M130): 2.649
Th-T fluorescence, mean of three wells (Aβ42 aggregation time course, reading M131): 2.67
Th-T fluorescence, mean of three wells (Aβ42 aggregation time course, reading M132): 2.65
Th-T fluorescence, mean of three wells (Aβ42 aggregation time course, reading M133): 2.648
Th-T fluorescence, mean of three wells (Aβ42 aggregation time course, reading M134): 2.64
Th-T fluorescence, mean of three wells (Aβ42 aggregation time course, reading M135): 2.652
Th-T fluorescence, mean of three wells (Aβ42 aggregation time course, reading M136): 2.674
Th-T fluorescence, mean of three wells (Supplementary Fig. 47, reading M137): 2.698
Th-T fluorescence, mean of three wells (Supplementary Fig. 47, reading M138): 2.649
Th-T fluorescence, mean of three wells (Supplementary Fig. 47, reading M139): 2.636
Th-T fluorescence, mean of three wells (Supplementary Fig. 47, reading M140): 2.665
Th-T fluorescence, mean of three wells (Supplementary Fig. 47, reading M141): 2.631
Th-T fluorescence, mean of three wells (Supplementary Fig. 47, reading M142): 2.63
Th-T fluorescence, mean of three wells (Supplementary Fig. 47, reading M143): 2.626
Th-T fluorescence, mean of three wells (Supplementary Fig. 47, reading M144): 2.617
Th-T fluorescence, mean of three wells (Supplementary Fig. 47, reading M145): 2.644
Th-T fluorescence, mean of three wells (Supplementary Fig. 47 source data, measurement M37 of time course): 2.596
Th-T fluorescence, mean of three wells (Supplementary Fig. 47 source data, measurement M38 of time course): 2.604
Th-T fluorescence, mean of three wells (Supplementary Fig. 47 source data, measurement M39 of time course): 2.6132
Th-T fluorescence, mean of three wells (Supplementary Fig. 47 source data, measurement M40 of time course): 2.619
Th-T fluorescence, mean of three wells (Supplementary Fig. 47 source data, measurement M41 of time course): 2.62
Th-T fluorescence, mean of three wells (Supplementary Fig. 47 source data, measurement M42 of time course): 2.62
Th-T fluorescence, mean of three wells (Supplementary Fig. 47 source data, measurement M43 of time course): 2.6737
Th-T fluorescence, mean of three wells (Supplementary Fig. 47 source data, measurement M44 of time course): 2.6589
Th-T fluorescence, mean of three wells (Supplementary Fig. 47 source data, measurement M45 of time course): 2.678
Th-T fluorescence, mean of three wells (Supplementary Fig. 47 source data, measurement M46 of time course): 2.668
Th-T fluorescence, mean of three wells (Supplementary Fig. 47 source data, measurement M47 of time course): 2.664
Th-T fluorescence, mean of three wells (Supplementary Fig. 47 source data, measurement M48 of time course): 2.673
Th-T fluorescence, mean of three wells (Supplementary Fig. 47 source data, measurement M49 of time course): 2.687
Th-T fluorescence, mean of three wells (Supplementary Fig. 47 source data, measurement M50 of time course): 2.7097
Th-T fluorescence, mean of three wells (Supplementary Fig. 47 source data, measurement M51 of time course): 2.667
Th-T fluorescence, mean of three wells (Supplementary Fig. 47 source data, measurement M52 of time course): 2.696
Th-T fluorescence, mean of three wells (Supplementary Fig. 47 source data, measurement M53 of time course): 2.692
Th-T fluorescence, mean of three wells (Supplementary Fig. 47 source data, measurement M54 of time course): 2.717
Th-T fluorescence, mean of three wells (Supplementary Fig. 47 source data, measurement M55 of time course): 2.693
Th-T fluorescence, mean of three wells (Supplementary Fig. 47 source data, measurement M56 of time course): 2.698
Th-T assay plate reading, mean of three wells (Supplementary Fig. 47) (measurement M1): 0.28
Th-T assay plate reading, mean of three wells (Supplementary Fig. 47) (measurement M2): 0.2885
Th-T assay plate reading, mean of three wells (Supplementary Fig. 47) (measurement M3): 0.3145
Th-T assay plate reading, mean of three wells (Supplementary Fig. 47) (measurement M4): 0.3563
Th-T assay plate reading, mean of three wells (Supplementary Fig. 47) (measurement M5): 0.4309
Th-T assay plate reading, mean of three wells (Supplementary Fig. 47) (measurement M6): 0.5173
Th-T assay plate reading, mean of three wells (Supplementary Fig. 47) (measurement M7): 0.5869
Th-T assay plate reading, mean of three wells (Supplementary Fig. 47) (measurement M8): 0.6432
Th-T assay plate reading, mean of three wells (Supplementary Fig. 47) (measurement M9): 0.6839
Th-T assay plate reading, mean of three wells (Supplementary Fig. 47) (measurement M10): 0.7213
Th-T assay plate reading, mean of three wells (Supplementary Fig. 47) (measurement M11): 0.7671
Th-T assay plate reading, mean of three wells (Supplementary Fig. 47) (measurement M12): 0.8255
Th-T assay plate reading, mean of three wells (Supplementary Fig. 47) (measurement M13): 0.9138
Th-T assay plate reading, mean of three wells (Supplementary Fig. 47) (measurement M14): 1.049
Th-T assay plate reading, mean of three wells (Supplementary Fig. 47) (measurement M15): 1.273
Th-T assay plate reading, mean of three wells (Supplementary Fig. 47) (measurement M16): 1.57
Th-T fluorescence, mean of three wells (reading M17, Supplementary Fig. 47 source data): 1.838
Th-T fluorescence, mean of three wells (reading M18, Supplementary Fig. 47 source data): 2.054
Th-T fluorescence, mean of three wells (reading M19, Supplementary Fig. 47 source data): 2.206
Th-T fluorescence, mean of three wells (reading M20, Supplementary Fig. 47 source data): 2.312
Th-T fluorescence, mean of three wells (reading M21, Supplementary Fig. 47 source data): 2.3414
Th-T fluorescence, mean of three wells (reading M22, Supplementary Fig. 47 source data): 2.381
Th-T fluorescence, mean of three wells (reading M23, Supplementary Fig. 47 source data): 2.384
Th-T fluorescence, mean of three wells (reading M24, Supplementary Fig. 47 source data): 2.421
Th-T fluorescence, mean of three wells (reading M25, Supplementary Fig. 47 source data): 2.421
Th-T fluorescence, mean of three wells (reading M26, Supplementary Fig. 47 source data): 2.4278
Th-T fluorescence, mean of three wells (reading M27, Supplementary Fig. 47 source data): 2.452
Th-T fluorescence, mean of three wells (reading M28, Supplementary Fig. 47 source data): 2.461
Th-T fluorescence, mean of three wells (reading M29, Supplementary Fig. 47 source data): 2.478
Th-T fluorescence, mean of three wells (reading M30, Supplementary Fig. 47 source data): 2.514
Th-T fluorescence, mean of three wells (reading M31, Supplementary Fig. 47 source data): 2.5151
Th-T fluorescence, mean of three wells (reading M32, Supplementary Fig. 47 source data): 2.555
Th-T fluorescence, mean of three wells (reading M33, Supplementary Fig. 47 source data): 2.5475
Th-T fluorescence, mean of three wells (reading M34, Supplementary Fig. 47 source data): 2.566
Th-T fluorescence, mean of three wells (reading M35, Supplementary Fig. 47 source data): 2.566
Th-T fluorescence, mean of three wells (reading M36, Supplementary Fig. 47 source data): 2.598
Th-T fluorescence, mean of three wells (time course, reading M57): 2.692
Th-T fluorescence, mean of three wells (time course, reading M58): 2.694
Th-T fluorescence, mean of three wells (time course, reading M59): 2.7314
Th-T fluorescence, mean of three wells (time course, reading M60): 2.723
Th-T fluorescence, mean of three wells (time course, reading M61): 2.703
Th-T fluorescence, mean of three wells (time course, reading M62): 2.708
Th-T fluorescence, mean of three wells (time course, reading M63): 2.7
Th-T fluorescence, mean of three wells (time course, reading M64): 2.715
Th-T fluorescence, mean of three wells (time course, reading M65): 2.696
Th-T fluorescence, mean of three wells (time course, reading M66): 2.7072
Th-T fluorescence, mean of three wells (time course, reading M67): 2.703
Th-T fluorescence, mean of three wells (time-course reading M97, Supplementary Fig. 47 source data): 2.693
Th-T fluorescence, mean of three wells (time-course reading M98, Supplementary Fig. 47 source data): 2.706
Th-T fluorescence, mean of three wells (time-course reading M99, Supplementary Fig. 47 source data): 2.707
Th-T fluorescence, mean of three wells (time-course reading M100, Supplementary Fig. 47 source data): 2.682
Th-T fluorescence, mean of three wells (time-course reading M101, Supplementary Fig. 47 source data): 2.67
Th-T fluorescence, mean of three wells (time-course reading M102, Supplementary Fig. 47 source data): 2.671
Th-T fluorescence, mean of three wells (time-course reading M103, Supplementary Fig. 47 source data): 2.705
Th-T fluorescence, mean of three wells (time-course reading M104, Supplementary Fig. 47 source data): 2.674
Th-T fluorescence, mean of three wells (time-course reading M105, Supplementary Fig. 47 source data): 2.704
Th-T fluorescence, mean of three wells (time-course reading M106, Supplementary Fig. 47 source data): 2.676
Th-T fluorescence, mean of three wells (time-course reading M107, Supplementary Fig. 47 source data): 2.6621
Th-T fluorescence, mean of three wells (time-course reading M108, Supplementary Fig. 47 source data): 2.675
Th-T fluorescence, mean of three wells (time-course reading M109, Supplementary Fig. 47 source data): 2.6837
Th-T fluorescence, mean of three wells (time-course reading M110, Supplementary Fig. 47 source data): 2.682
Th-T fluorescence, mean of three wells (time-course reading M111, Supplementary Fig. 47 source data): 2.679
Th-T fluorescence, mean of three wells (time-course reading M112, Supplementary Fig. 47 source data): 2.691
Th-T fluorescence, mean of three wells (time-course reading M113, Supplementary Fig. 47 source data): 2.675
Th-T fluorescence, mean of three wells (time-course reading M114, Supplementary Fig. 47 source data): 2.674
Th-T fluorescence, mean of three wells (time-course reading M115, Supplementary Fig. 47 source data): 2.688
Th-T fluorescence, mean of three wells (time-course reading M116, Supplementary Fig. 47 source data): 2.67
Structure (SMILES): C=C1CC[C@H]2[C@]3(C)C[C@@H](C=C(C)C)O[C@H]3CC[C@]2(C)[C@@H]1Cc1c(O)c(C)c(C)oc1=O [Compound 5, subglutinol A]
